Where two headings read alike, the source gives them in different places. Oligonucleotides are written 5' to 3', each unit as a sugar letter and its base; * is a phosphorothioate linkage, no mark a phosphodiester; rarer units and linkages stand in square brackets, end groups in braces. Plain capitals give the bases only. [PEG] = polyethylene glycol spacer within the chain; [invdT] = inverted (3'-3') thymidine; d = 2'-deoxy (DNA); m = 2'-O-methyl; r = 2'-OH (RNA); f = 2'-fluoro
How the values were obtained:
[1] = test system: full length human vWF (SEQ ID NO 7); assay: dot blot KD determination and extent of binding, full length human vWF; conditions: for % binding @ 100 nM vWF: extent of aptamer binding at 100 nM full length human vWF; for Kd: full length human vWF, read-out: KD;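 on all read-outs here: dot blot binding of aptamers to full length human vWF across a protein titration, incubated 30 minutes at room temperature in 1x DPBS with BSA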
[2] = biological target: human vWF A1 domain (SEQ ID NO 5) (Homo sapiens, UniProt P04275, T1381A); assay: 3-point dot blot screen, human vWF A1 domain; assay type: binding; conditions: rRfY aptamers; 100 nM human vWF A1 domain; ratio of fraction bound with target to fraction bound without target
Source text: (§1) When a significant positive ratio of binding of RNA in the presence of human or rabbit vWF A1 domain versus in the absence of protein was seen, the pools were cloned using the TOPO TA cloning kit (Invitrogen, Cat. #45-0641, Carlsbad, Calif.) according to the manufacturer's instructions. Round 9 and 12 pool templates were cloned and sequenced (125 total sequences), producing 48 unique clones. All unique clones were transcribed, desalted, 5-^32P end-labeled, and assayed in a 3-point dot blot screen (no protein target control, 100 nM human vWF A1 domain (SEQ ID NO 5, FIG. 3), or 100 nM rabbit vWF A1 domain (SEQ ID NO 6, FIG. 3). The data is presented in the third and fourth columns of Table 4 below as the ratio of the fraction of the aptamer bound to the nitrocellulose in the presence of the target protein to the fraction of aptamer bound in the absence of the target protein.
(§2) When a significant positive ratio of binding of RNA in the presence of human or rabbit vWF A1 domain (SEQ ID NOS 4 and 6, respectively) versus in the absence of protein was seen, the pools were cloned using the TOPO TA cloning kit (Invitrogen Cat. #45-0641, Carlsbad, Calif.) according to the manufacturer's instructions. Round 9 and 12 pool templates were cloned and sequenced (185 total sequences), producing 78 unique clones within 3 sequence families. All unique clones were transcribed, desalted, 5-^32P end-labeled, and assayed in a 3-point dot blot screen (no protein target control, 100 nM human vWF A1 domain (SEQ ID NO 5), or 100 nM rabbit vWF A1 domain (SEQ ID NO 6). The data are presented in the third and fourth columns of Table 9 below as the ratio of the fraction of the aptamer bound to the nitrocellulose in the presence of the target protein to the fraction of aptamer bound in the absence of the target protein. Of the three sequence families, members of Family #1 and #2 and two individual, non-family aptamers, bound to both human vWF domain A1 (SEQ ID NO 5) and rabbit vWF domain A1 (SEQ ID NO 6).
(§3) All unique clones were assayed in a 3-point dot blot screen (no protein target control, 100 nM human vWF A1 domain (SEQ ID NO 5), or 100 nM rabbit vWF A1 domain (SEQ ID NO 6). The data are presented in the third and fourth columns of Table 14 below as the ratio of the fraction of the aptamer bound to the nitrocellulose in the presence of the target protein to the fraction of aptamer bound in the absence of the target protein.

[3] = test system: rabbit vWF A1 domain (SEQ ID NO 6); assay: 3-point dot blot screen, rabbit vWF A1 domain; assay type: binding; conditions: rRfY aptamers; 100 nM rabbit vWF A1 domain; ratio of fraction bound with target to without
Source text: as §1, §2, §3
When a significant positive ratio of binding of DNA in the presence of human or rabbit vWF A1 domain versus in the absence of protein was seen, the pools were cloned using the TOPO TA cloning kit (Invitrogen Cat. #45-0641, Carlsbad, Calif.) according to the manufacturer's instructions. Round 7 and 11 pool templates were cloned and sequenced (218 total sequences), producing 146 unique clones within 12 sequence families of which sequences from six families show vWF target binding activity. All unique clones were assayed twice in a 3-point dot blot screen (no protein target control, 20 nM full length human vWF (Calbiochem Cat. #681300, La Jolla, Calif.), or 20 nM rabbit vWF A1 domain. The data is presented in the third and fourth columns of Table 17 below as the ratio of the fraction of the aptamer bound to the nitrocellulose in the presence of the target protein to the fraction of aptamer bound in the absence of the target protein.

Chain of human vWF A1 domain (SEQ ID NO 5) (P04275 with tags, fused parts or gaps T1381A): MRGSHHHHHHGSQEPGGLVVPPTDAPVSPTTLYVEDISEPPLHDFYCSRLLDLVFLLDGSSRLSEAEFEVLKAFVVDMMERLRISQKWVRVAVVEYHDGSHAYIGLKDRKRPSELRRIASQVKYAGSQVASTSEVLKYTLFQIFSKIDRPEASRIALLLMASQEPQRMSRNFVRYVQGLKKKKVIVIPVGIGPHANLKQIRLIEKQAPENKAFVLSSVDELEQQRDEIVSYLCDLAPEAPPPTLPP
Chain of rabbit vWF A1 domain (SEQ ID NO 6) (as listed by the source): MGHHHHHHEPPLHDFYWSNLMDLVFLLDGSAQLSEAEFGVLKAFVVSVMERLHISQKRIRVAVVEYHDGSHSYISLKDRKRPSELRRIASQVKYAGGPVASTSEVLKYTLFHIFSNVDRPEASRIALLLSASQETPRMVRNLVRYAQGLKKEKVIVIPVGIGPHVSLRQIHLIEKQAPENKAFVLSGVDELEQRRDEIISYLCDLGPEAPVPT

Row | Molecule | % binding @ 100 nM vWF ([1]; Phase 2 modification) | Kd ([1]; Phase 2 modification) | % binding @ 100 nM vWF ([1]; Phase 4 and 5 modification) | Kd ([1]; Phase 4 and 5 modification) | also measured
1 | dGdGdCdGTdGdCdAmGmUdGdCdCTTdCdGdGdCdCmGTmGdCdGdGTdGdCdCTdCdCmGmUmCdAdCdGdCdC-3T (dGdGdCdGdTdGdCdAmGmUdGdCdCdTdTdCdGdGdCdCmGdTmGdCdGdGdTdGdCdCdTdCdCmGmUmCdAdCdGdCdC[invdT]; aptamer) [ARC1339] | 39% | 2.4 nM |  |  | 
2 | mCmCmGmGmCdCmG-s-TmGdCdGdGTmGmCdCmUdCdCmGmUdCmAmCmGmUmUmCmCmGmUdGdCdAmGmUmGmCmCmGmG-3T (mCmCmGmGmCdCmG*dTmGdCdGdGdTmGmCdCmUdCdCmGmUdCmAmCmGmUmUmCmCmGmUdGdCdAmGmUmGmCmCmGmG[invdT]; aptamer) [ARC1546] |  |  | 26% | 24 nM | 
3 | mCmCmGmGmCdCmG-s-TmGdCdGdGTmGmCdCmUdCdCmGmUmCmAmCmUmUmUmGmUdGdCdAmGmUmGmCmCmGmG-3T (mCmCmGmGmCdCmG*dTmGdCdGdGdTmGmCdCmUdCdCmGmUmCmAmCmUmUmUmGmUdGdCdAmGmUmGmCmCmGmG[invdT]; aptamer) [ARC1535] |  |  | 48.3% | 27.1 nM | 
4 | mCmGmGmCdCmG-s-TmGdCdGdGTmGmCdCmUdCdCmGmUmCmAmCmUmUmUmGmUdGdCdAmGmUmGmCmCmG-3T (mCmGmGmCdCmG*dTmGdCdGdGdTmGmCdCmUdCdCmGmUmCmAmCmUmUmUmGmUdGdCdAmGmUmGmCmCmG[invdT]; aptamer) [ARC1534] |  |  | 25.6% | 62.8 nM | 
5 | mCmGmUdGdCdAmGmUmGmCmCPEGmGmGmCdCmG-s-TmGdCdGdGTmGmCdCmUdCdCmGmUdCmAmCmG-3T (mCmGmUdGdCdAmGmUmGmCmC[PEG]mGmGmCdCmG*dTmGdCdGdGdTmGmCdCmUdCdCmGmUdCmAmCmG[invdT]; aptamer) [ARC1531] |  |  | 20.0% | 1.5 nM | 
6 | mCmGmUdGdCdAmGmUmGmCmCPEGmGmGmCdCmG-s-TmGdCdGdGTmGmCdCmUdCdCmGmUmCmAmCmG-3T (mCmGmUdGdCdAmGmUmGmCmC[PEG]mGmGmCdCmG*dTmGdCdGdGdTmGmCdCmUdCdCmGmUmCmAmCmG[invdT]; aptamer) [ARC1532] |  |  | 19.3% | 2.6 nM | 
7 | mCmGmUdGdCdAmGmUmGmCmCmUmUmCmGmGmCdCmG-s-TmGdCdGdGTmGmCdCmUdCdCmGmUmCmAmCmG-3T (mCmGmUdGdCdAmGmUmGmCmCmUmUmCmGmGmCdCmG*dTmGdCdGdGdTmGmCdCmUdCdCmGmUmCmAmCmG[invdT]; aptamer) [ARC1529] |  |  | 22.6% | 12.3 nM | 
8 | mCmGmUdGdCdAmGmUmGmCmCmUmUmUmGmGmCdCmG-s-TmGdCdGdGTmGmCdCmUdCdCmGmUmCmAmCmG-3T (mCmGmUdGdCdAmGmUmGmCmCmUmUmUmGmGmCdCmG*dTmGdCdGdGdTmGmCdCmUdCdCmGmUmCmAmCmG[invdT]; aptamer) [ARC1530] |  |  | 19.2% | 15 nM | 
9 | mGmCmGmUdGdCdAmGmUmGmCmCPEGmGmGmCdCmG-s-TmGdCdGdGTmGmCdCmUdCdCmGmUdCmAmCmGmC-3T (mGmCmGmUdGdCdAmGmUmGmCmC[PEG]mGmGmCdCmG*dTmGdCdGdGdTmGmCdCmUdCdCmGmUdCmAmCmGmC[invdT]) [ARC1527] |  |  | 14.1% | 3.4 nM | 
10 | mGmCmGmUdGdCdAmGmUmGmCmCPEGmGmGmCdCmG-s-TmGdCdGdGTmGmCdCmUdCdCmGmUmCmAmCmGmC-3T (mGmCmGmUdGdCdAmGmUmGmCmC[PEG]mGmGmCdCmG*dTmGdCdGdGdTmGmCdCmUdCdCmGmUmCmAmCmGmC[invdT]; aptamer) [ARC1528] |  |  | 10.2% | 4.2 nM | 
11 | mGmCmGmUdGdCdAmGmUmGmCmCmUmUmCmGmGmCdCmG-s-TmGdCdGdGTmGmCdCmUdCdCmGmUmCmAmCmGmC-3T (mGmCmGmUdGdCdAmGmUmGmCmCmUmUmCmGmGmCdCmG*dTmGdCdGdGdTmGmCdCmUdCdCmGmUmCmAmCmGmC[invdT]) [ARC1524] |  |  | 26.5% | 5.7 nM | 
12 | mGmCmGmUdGdCdAmGmUmGmCmCmUmUmUmGmGmCdCmG-s-TmGdCdGdGTmGmCdCmUdCdCmGmUmCmAmCmGmC-3T (mGmCmGmUdGdCdAmGmUmGmCmCmUmUmUmGmGmCdCmG*dTmGdCdGdGdTmGmCdCmUdCdCmGmUmCmAmCmGmC[invdT]) [ARC1526] |  |  | 29.0% | 4.7 nM | 
13 | mGmGmCmGmU-s-dG-s-dC-s-dAmGmUmGmCmCmUmUmCmGmGmC-s-dCmG-s-TmG-s-dC-s-dG-s-dG-s-TmGmC-s-dCmU-s-dC-s-dCmGmUmCmAmCmGmCmC-3T (mGmGmCmGmU*dG*dC*dAmGmUmGmCmCmUmUmCmGmGmC*dCmG*dTmG*dC*dG*dG*dTmGmC*dCmU*dC*dCmGmUmCmAmCmGmCmC[invdT]) [ARC1345] | 29% | 12.1 nM |  |  | 
14 | mGmGmCmGmUdG-s-dC-s-dAmGmUmGmCmCmUmUmCmGmGmC-s-dCmGTmGdC-s-dG-s-dGTmGmCdCmUdC-s-dCmGmUmCmAmCmGmCmC-3T (mGmGmCmGmUdG*dC*dAmGmUmGmCmCmUmUmCmGmGmC*dCmGdTmGdC*dG*dGdTmGmCdCmUdC*dCmGmUmCmAmCmGmCmC[invdT]) [ARC1344] | 17% | 4.8 nM |  |  | 
15 | mGmGmCmGmUdG-s-dCdAmGmUmGmCmCmUmUmCmGmGmC-s-dCmGTmGdCdG-s-dGTmGmCdCmUdC-s-dCmGmUmCmAmCmGmCmC-3T (mGmGmCmGmUdG*dCdAmGmUmGmCmCmUmUmCmGmGmC*dCmGdTmGdCdG*dGdTmGmCdCmUdC*dCmGmUmCmAmCmGmCmC[invdT]) [ARC1343] | 21% | 23.9 nM |  |  | 
16 | mGmGmCmGmUdGdCdAdGTdGdCdCTTdCdGdGdCdCdGTdGdCdGdGTdGdCdCTdCdCdGTdCmAmCmGmCmC-3T (mGmGmCmGmUdGdCdAdGdTdGdCdCdTdTdCdGdGdCdCdGdTdGdCdGdGdTdGdCdCdTdCdCdGdTdCmAmCmGmCmC[invdT]; aptamer) [ARC1338] | 21% | 7.4 nM |  |  | 
17 | mGmGmCmGmUdGdCdAmGmUmGmCmCmUmUmCmGmGmCdCdGTdGdCdGdGTdGdCdCTdCdCdGTdCmAmCmGmCmC-3T (mGmGmCmGmUdGdCdAmGmUmGmCmCmUmUmCmGmGmCdCdGdTdGdCdGdGdTdGdCdCdTdCdCdGdTdCmAmCmGmCmC[invdT]; aptamer) [ARC1341] | 26% | 22.5 nM |  |  | 
18 | mGmGmCmGmUdGdCdAmGmUmGmCmCmUmUmCmGmGmCdCmGTmGdCdGdGTmGmCdCmUdCdCmGmUmCmAmCmGmCmC-3T (mGmGmCmGmUdGdCdAmGmUmGmCmCmUmUmCmGmGmCdCmGdTmGdCdGdGdTmGmCdCmUdCdCmGmUmCmAmCmGmCmC[invdT]; aptamer) [ARC1342] | 33% | 15.6 nM |  |  | 
19 | AMX201.B3: rRfY aptamer clone (nucleic acid) rGrGrArGfCrGfCrAfCfUfCrArGfCfCrAfCrArGrArGfCfCfCfUrGrArGfUrGfUrAfUrGrAfUfCrGfCfCrGrArGrAfUfCfUrAfUfCrGrAfUrGfCfUfUfUfUfUfCrGrAfCfCfUfCfUfCfUrGfCfUrArGfC |  |  |  |  | Screen- Human/No Protein [2]: 1.69; Screen- Rabbit/No Protein [3]: 1.64
20 | AMX201.B11: rRfY aptamer clone (nucleic acid) rGrGrArGfCrGfCrAfCfUfCrArGfCfCrAfCrAfCfCrGrArGrGfCfUrGrGrAfUrAfUfCfUrAfCrGrArGrArGrGrArArGfUrGfCfUrGfCfUfUrGrArAfUfUfUfCrGrAfCfCfUfCfUfCfUrGfCfUrArGfC |  |  |  |  | Screen- Human/No Protein [2]: 1.55; Screen- Rabbit/No Protein [3]: 1.52

Source: patent US7998940B2, “Aptamers to von Willebrand factor and their use as thrombotic disease therapeutics” (Archemix Corp., priority 2004, dated 2011)
